Test results published in ChEMBL document CHEMBL5126517, “Structure-Activity Relationship in the Leucettine Family of Kinase Inhibitors” (J Med Chem, 2022).

Experiments:
[1] = molecular target: Dual specificity protein kinase CLK4 (Mus musculus, UniProt O35493); assay: Inhibition of GST-fused mouse recombinant CLK4 expressed in Escherichia coli using GRSRSRSRSRSR peptide as substrate incubated for 30 mins in presence of ATP by scintillation counting method
[2] = molecular target: T1, Dual specificity tyrosine-phosphorylation-regulated kinase 3 (Homo sapiens, UniProt O43781); assay: Inhibition of GST-fused human recombinant DYRK3 expressed in Escherichia coli using GRSRSRSRSRSR peptide as substrate incubated for 30 mins in presence of ATP by scintillation counting method
T1 sequence (O43781 whole entry): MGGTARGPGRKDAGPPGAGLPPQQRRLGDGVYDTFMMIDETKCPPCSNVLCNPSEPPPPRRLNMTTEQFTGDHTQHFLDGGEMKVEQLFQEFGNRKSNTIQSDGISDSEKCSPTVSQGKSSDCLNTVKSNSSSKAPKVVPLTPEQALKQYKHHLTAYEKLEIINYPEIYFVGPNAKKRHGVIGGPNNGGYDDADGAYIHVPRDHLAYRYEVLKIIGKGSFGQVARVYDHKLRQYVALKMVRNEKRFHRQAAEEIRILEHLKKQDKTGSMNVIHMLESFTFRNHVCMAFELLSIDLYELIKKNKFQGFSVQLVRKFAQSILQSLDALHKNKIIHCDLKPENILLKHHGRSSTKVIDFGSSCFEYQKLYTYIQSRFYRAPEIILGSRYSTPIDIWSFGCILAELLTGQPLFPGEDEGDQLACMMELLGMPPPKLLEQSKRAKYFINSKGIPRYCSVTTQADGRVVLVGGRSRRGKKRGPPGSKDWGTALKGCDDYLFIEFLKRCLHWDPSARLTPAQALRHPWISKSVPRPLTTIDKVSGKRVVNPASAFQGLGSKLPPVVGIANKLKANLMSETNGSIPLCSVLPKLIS

[3] = molecular target: Dual specificity protein kinase CLK1 (Mus musculus, UniProt P22518); assay: Inhibition of GST-fused mouse recombinant CLK1 expressed in Escherichia coli using GRSRSRSRSRSR peptide as substrate incubated for 30 mins in presence of ATP by scintillation counting method
[4] = molecular target: T2, Dual specificity tyrosine-phosphorylation-regulated kinase 2 (Homo sapiens, UniProt Q92630); assay: Inhibition of GST-fused human recombinant DYRK2 expressed in Escherichia coli using GRSRSRSRSRSR peptide as substrate incubated for 30 mins in presence of ATP by scintillation counting method
T2 sequence (Q92630 whole entry): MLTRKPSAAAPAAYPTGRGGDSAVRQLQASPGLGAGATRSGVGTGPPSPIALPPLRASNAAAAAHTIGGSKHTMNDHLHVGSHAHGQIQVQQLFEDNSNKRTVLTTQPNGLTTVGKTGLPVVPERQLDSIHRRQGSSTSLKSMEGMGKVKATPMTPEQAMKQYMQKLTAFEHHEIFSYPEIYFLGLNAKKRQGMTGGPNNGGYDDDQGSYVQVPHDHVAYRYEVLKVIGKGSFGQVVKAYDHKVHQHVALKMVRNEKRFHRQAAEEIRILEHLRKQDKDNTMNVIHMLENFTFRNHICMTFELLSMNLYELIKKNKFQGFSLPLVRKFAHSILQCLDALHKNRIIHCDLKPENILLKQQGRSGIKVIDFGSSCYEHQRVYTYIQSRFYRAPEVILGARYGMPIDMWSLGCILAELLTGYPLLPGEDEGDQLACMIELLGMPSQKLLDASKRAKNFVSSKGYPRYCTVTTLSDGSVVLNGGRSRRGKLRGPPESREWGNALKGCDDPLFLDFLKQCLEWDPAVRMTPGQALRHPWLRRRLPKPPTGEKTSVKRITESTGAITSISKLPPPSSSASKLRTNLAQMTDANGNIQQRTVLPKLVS

[5] = molecular target: Glycogen synthase kinase-3 (Sus scrofa, UniProt B2LUN4+I6LNT8); assay: Inhibition of porcine brain GSK-3alpha/beta using YRRAAVPPSPSLSRHSSPHQpSEDEEE as substrate incubated for 30 mins in presence of ATP by scintillation counting method; type: tissue-based
[6] = molecular target: Dual specificity protein kinase CLK3 (Mus musculus, UniProt O35492); assay: Inhibition of GST-fused mouse recombinant CLK3 expressed in Escherichia coli using GRSRSRSRSRSR peptide as substrate incubated for 30 mins in presence of ATP by scintillation counting method
[7] = molecular target: Dual specificity tyrosine-phosphorylation-regulated kinase 1A (Homo sapiens, UniProt Q13627); assay: Inhibition of GST-fused human recombinant DYRK1A expressed in Escherichia coli using GRSRSRSRSRSR peptide as substrate incubated for 30 mins in presence of ATP by scintillation counting method
[8] = molecular target: Dual specificity protein kinase CLK2 (Mus musculus, UniProt O35491); assay: Inhibition of mouse recombinant GST-fused CLK2 expressed in Escherichia coli using GRSRSRSRSRSR peptide as substrate incubated for 30 mins in presence of ATP by scintillation counting method
[9] = Neurotoxicity against mouse HT-22 cells assessed as cell survival treated for 24 hrs by MTS assay; type: toxicity, cell-based
[10] = molecular target: Dual specificity tyrosine-phosphorylation-regulated kinase 1B (Homo sapiens, UniProt Q9Y463)
[11] = molecular target: Serine/threonine-protein kinase pim-1 (Homo sapiens, UniProt P11309); assay: Inhibition of human recombinant Pim1 expressed in Escherichia coli using histone H1 as substrate incubated for 30 mins in presence of ATP by scintillation counting method
[12] = molecular target: Casein kinase 2 (Homo sapiens, UniProt P67870+P68400+P19784+Q8NEV1); assay: Inhibition of human recombinant CK2 using RRRDDDSDDD peptide as substrate incubated for 30 mins in presence of ATP by scintillation counting method; type: protein assay
[13] = Neurotoxicity against mouse HT-22 cells assessed as cell survival at 20 uM treated for 24 hrs by MTS assay; type: toxicity, cell-based; settings: ht-22, 24 h
[14] = test system: U2OS; assay: Induction of PI3K/mTor-dependent autophagy in human U2OS cells assessed as number of LC3 foci per cell at 10 uM measured after 4 hrs; type: cell-based; settings: filed as activator
[15] = test system: HT-22; assay: Neuroprotective activity against glutamate-induced cell death in mouse HT-22 cells treated for 24 hrs by MTS assay; type: functional, cell-based; settings: HT-22, 24 h
[16] = molecular target: Cannabinoid receptor 1 (Homo sapiens, UniProt P21554); assay: Antagonist activity at CP-55940-activated CB1 receptor (unknown origin) at 10 uM by beta-arrestin assay relative to control; type: functional; design: scale not given: the % may be the effect or the level left
[17] = test system: HT-22; assay: Modulation of CLK1 pre-mRNA splicing in mouse HT-22 cells assessed as inclusion of CLK1 exon 4 by measuring change in threshold cycle at 10 uM measured after 4 hrs by real time PCR analysis; type: cell-based; settings: filed as modulator

Sequence of Cannabinoid receptor 1 (P21554 whole entry): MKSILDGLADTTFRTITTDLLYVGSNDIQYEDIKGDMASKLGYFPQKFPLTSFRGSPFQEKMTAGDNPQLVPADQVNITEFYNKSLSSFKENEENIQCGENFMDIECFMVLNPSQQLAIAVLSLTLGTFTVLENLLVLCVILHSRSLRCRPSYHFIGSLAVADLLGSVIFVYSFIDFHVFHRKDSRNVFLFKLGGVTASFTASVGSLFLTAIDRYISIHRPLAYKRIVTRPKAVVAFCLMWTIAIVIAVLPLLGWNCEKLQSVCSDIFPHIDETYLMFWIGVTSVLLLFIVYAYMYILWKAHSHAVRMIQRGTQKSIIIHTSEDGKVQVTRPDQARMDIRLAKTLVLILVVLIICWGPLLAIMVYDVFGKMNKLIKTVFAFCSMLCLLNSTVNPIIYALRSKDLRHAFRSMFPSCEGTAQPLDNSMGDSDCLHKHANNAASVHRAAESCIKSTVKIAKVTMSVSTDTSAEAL
Sequence of Dual specificity protein kinase CLK2 (O35491 whole entry, the tested form may be a part): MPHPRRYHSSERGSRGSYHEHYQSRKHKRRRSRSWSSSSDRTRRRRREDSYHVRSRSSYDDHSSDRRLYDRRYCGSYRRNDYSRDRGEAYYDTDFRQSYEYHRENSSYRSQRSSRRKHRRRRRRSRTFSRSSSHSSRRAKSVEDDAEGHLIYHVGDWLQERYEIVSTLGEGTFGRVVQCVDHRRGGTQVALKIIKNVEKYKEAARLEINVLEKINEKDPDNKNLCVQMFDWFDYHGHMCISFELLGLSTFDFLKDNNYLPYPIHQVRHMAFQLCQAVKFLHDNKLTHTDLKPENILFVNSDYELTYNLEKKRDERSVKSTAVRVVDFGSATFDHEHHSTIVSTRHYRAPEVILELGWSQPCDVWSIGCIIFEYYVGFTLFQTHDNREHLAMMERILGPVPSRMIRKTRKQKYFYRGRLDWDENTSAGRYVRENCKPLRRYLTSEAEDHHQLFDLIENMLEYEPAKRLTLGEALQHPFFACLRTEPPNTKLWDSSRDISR
Sequence of Dual specificity protein kinase CLK3 (O35492 whole entry, the tested form may be a part): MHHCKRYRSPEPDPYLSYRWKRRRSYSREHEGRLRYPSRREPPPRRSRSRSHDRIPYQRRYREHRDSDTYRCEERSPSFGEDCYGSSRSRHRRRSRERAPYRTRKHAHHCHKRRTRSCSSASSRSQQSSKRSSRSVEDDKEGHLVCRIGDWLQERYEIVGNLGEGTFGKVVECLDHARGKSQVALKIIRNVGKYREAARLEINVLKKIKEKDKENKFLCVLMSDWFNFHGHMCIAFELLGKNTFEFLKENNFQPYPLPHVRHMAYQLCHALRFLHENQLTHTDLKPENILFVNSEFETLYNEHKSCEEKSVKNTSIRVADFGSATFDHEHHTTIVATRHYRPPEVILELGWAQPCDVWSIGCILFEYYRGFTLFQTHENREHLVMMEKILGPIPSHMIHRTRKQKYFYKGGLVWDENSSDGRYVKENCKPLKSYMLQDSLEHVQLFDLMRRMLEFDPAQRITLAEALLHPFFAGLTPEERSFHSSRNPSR
Sequence of Serine/threonine-protein kinase pim-1 (P11309 whole entry): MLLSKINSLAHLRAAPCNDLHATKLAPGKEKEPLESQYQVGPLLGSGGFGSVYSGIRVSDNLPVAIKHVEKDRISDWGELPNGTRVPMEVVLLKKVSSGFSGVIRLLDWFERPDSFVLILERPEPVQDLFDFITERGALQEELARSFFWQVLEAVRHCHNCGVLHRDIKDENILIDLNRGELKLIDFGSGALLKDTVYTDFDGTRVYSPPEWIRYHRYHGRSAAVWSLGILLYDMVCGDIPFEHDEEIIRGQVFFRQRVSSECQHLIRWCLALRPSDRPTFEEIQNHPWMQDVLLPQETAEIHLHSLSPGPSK
Sequence of Dual specificity protein kinase CLK4 (O35493 whole entry, the tested form may be a part): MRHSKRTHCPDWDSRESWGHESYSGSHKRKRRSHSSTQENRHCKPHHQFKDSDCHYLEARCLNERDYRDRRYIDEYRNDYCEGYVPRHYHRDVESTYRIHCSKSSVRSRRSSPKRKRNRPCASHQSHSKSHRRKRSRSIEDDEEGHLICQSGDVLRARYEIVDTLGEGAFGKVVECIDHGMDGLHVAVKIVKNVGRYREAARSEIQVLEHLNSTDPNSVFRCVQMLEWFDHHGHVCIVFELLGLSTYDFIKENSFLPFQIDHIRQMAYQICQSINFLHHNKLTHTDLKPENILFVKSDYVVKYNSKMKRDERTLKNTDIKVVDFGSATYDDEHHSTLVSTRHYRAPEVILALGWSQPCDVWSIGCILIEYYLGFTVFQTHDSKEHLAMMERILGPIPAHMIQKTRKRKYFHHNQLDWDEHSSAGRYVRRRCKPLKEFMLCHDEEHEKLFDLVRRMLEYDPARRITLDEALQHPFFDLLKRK
Sequence of Dual specificity protein kinase CLK1 (P22518 whole entry, the tested form may be a part): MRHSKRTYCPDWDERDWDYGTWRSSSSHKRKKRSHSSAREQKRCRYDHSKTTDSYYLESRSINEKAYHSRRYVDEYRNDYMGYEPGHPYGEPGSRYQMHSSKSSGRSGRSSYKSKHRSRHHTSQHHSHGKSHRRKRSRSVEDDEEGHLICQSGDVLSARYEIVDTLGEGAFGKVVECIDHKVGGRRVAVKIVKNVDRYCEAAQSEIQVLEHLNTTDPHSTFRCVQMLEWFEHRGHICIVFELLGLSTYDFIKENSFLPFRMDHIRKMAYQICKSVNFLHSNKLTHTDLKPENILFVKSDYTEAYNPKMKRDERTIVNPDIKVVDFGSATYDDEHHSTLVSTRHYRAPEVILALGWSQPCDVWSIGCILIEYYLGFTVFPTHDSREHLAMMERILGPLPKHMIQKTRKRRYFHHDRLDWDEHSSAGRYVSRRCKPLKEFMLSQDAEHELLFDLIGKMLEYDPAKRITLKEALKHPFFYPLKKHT
Sequence of Dual specificity tyrosine-phosphorylation-regulated kinase 1B (Q9Y463 whole entry): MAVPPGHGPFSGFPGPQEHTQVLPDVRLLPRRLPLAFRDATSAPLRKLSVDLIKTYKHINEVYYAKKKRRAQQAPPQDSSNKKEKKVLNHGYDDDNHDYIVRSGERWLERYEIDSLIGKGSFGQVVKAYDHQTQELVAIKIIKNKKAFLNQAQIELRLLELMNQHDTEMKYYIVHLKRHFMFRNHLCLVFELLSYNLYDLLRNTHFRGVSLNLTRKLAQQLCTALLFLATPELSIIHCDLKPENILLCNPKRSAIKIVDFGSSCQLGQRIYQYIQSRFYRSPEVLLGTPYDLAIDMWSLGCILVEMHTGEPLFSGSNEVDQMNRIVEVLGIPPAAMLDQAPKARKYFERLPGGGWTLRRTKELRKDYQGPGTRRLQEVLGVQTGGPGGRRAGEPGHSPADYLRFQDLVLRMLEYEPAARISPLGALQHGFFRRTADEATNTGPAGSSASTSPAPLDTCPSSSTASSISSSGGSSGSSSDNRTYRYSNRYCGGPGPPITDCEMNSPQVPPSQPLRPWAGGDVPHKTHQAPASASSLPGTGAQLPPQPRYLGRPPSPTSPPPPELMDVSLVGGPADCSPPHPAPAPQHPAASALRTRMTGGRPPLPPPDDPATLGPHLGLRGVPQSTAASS

Compound | IC50 [1] | IC50 [2] | IC50 [3] | IC50 [4] | IC50 [5] | IC50 [6] | IC50 [7] | IC50 [8] | EC50 at 24 h [9] | IC50 [10] | IC50 [11] | IC50 [12] | Activity [13] | Activity [14] | EC50 [15] | Activity [16] | deltaCT [17] | Activity ([16]; filed as antagonist) | IC50 at 24 h [9]
O=C1NC(Nc2ccccc2)=NC1Cc1ccc2c(c1)OCO2 (centres undefined) | 5600 nM | > 10000 nM | 6270 nM | > 10000 nM | > 10000 nM | > 10000 nM | 5100 nM | > 10000 nM | > 20000 nM | > 10000 nM | – | – | – | – | – | – | – | – | –
CCCNC1=N/C(=C\c2ccc3c(c2)OCO3)C(=O)N1C | 120 nM | 1200 nM | 110 nM | 95 nM | 1400 nM | 2500 nM | 460 nM | 560 nM | – | 550 nM | 3200 nM | > 10000 nM | Non-Toxic | 6.8 | > 20000 nM | -15.8% | 3.72 | – | –
COc1cccc(/C=C2\N=C(Nc3ccccc3)NC2=O)c1 | 5000 nM | – | ≥ 10000 nM | > 10000 nM | – | – | > 10000 nM | > 10000 nM | > 20000 nM | – | 3100 nM | – | – | 5.7 | 7200 nM | – | – | 71.9% | –
CN1CCN(c2ccc(NC3=N/C(=C\c4ccc5c(c4)OCO5)C(=O)N3)cc2)CC1 | 16 nM | 25 nM | 23 nM | 50 nM | 120 nM | 800 nM | 12 nM | 35 nM | – | – | 1100 nM | 1200 nM | Non-Toxic | 24.9 | > 20000 nM | -14.5% | 7.48 | – | –
Cc1ccc(NC2=N/C(=C\c3ccc4c(c3)OCO4)C(=O)N2)cc1 | 56 nM | 320 nM | 53 nM | 34 nM | 7300 nM | – | 18 nM | 1000 nM | – | 53 nM | 3500 nM | 1700 nM | Non-Toxic | 8.4 | 3200 nM | – | 2.29 | 90.8% | –
CN1C(=O)/C(=C/c2ccc3c(c2)OCO3)N=C1Nc1ccccc1 | 110 nM | 870 nM | 140 nM | 80 nM | 750 nM | 1400 nM | 93 nM | 500 nM | – | 3200 nM | ≥ 10000 nM | > 10000 nM | Non-Toxic | 7.9 | 14000 nM | -5.5% | 4.42 | – | –
COc1ccc(/C=C2\N=C(Nc3ccccc3)NC2=O)cc1 | 280 nM | 2100 nM | 340 nM | 220 nM | – | – | 170 nM | > 10000 nM | – | 550 nM | ≥ 10000 nM | 2100 nM | – | 5.8 | 5300 nM | – | – | 92.2% | > 20000 nM
O=C1NC(N2CCN(c3ccc(F)cc3)CC2)=N/C1=C\c1ccc2c(c1)OCCO2 | 2300 nM | 2100 nM | 2100 nM | 2200 nM | 8200 nM | > 10000 nM | 3100 nM | 10000 nM | – | ≥ 10000 nM | 9300 nM | – | – | 8.1 | 14000 nM | 16% | – | – | > 20000 nM
CCSC1=N/C(=C\c2ccc3c(c2)OCO3)C(=O)N1C | 110 nM | 300 nM | 120 nM | 340 nM | 1100 nM | 2100 nM | 240 nM | 420 nM | – | 980 nM | 2100 nM | > 10000 nM | Non-Toxic | 6.8 | – | -0.7% | -0.99 | – | –
CCCSC1=N/C(=C\c2ccc3c(c2)OCO3)C(=O)N1C | 22 nM | 620 nM | 64 nM | 330 nM | 2000 nM | > 10000 nM | 340 nM | 320 nM | – | 620 nM | 2000 nM | > 10000 nM | Non-Toxic | 6.2 | – | 37.2% | -1.36 | – | –
